In patent publication US9822125B2, “Benzopyran compounds as melanogenesis modifiers and uses thereof” (NEW YORK UNIVERSITY, priority 2011, dated 2017):

Tested on: melan-a cells
Assay: Melanin assay in cultured murine melanocytes (melan-a)
Format: cell-based
Details: 72 hours of incubation
Method: The Spectrum Collection library consisting of 2000 drug compounds or natural products represents a source for the identification of compounds useful in the present invention. The library may be screened to identify novel pigmentation inhibitors in cultured murine melanocytes (melan-a). Compounds are dissolved in dimethylsulfoxide (DMSO) to a final concentration of 10 mM. Screening is performed with cultured melanocytes in 24-well plates followed by melanin assay (see below). A minimum change of 50% in melanin formation is established as significant for a pigmentation inhibitor. DMSO may be used as a negative control and the widely used depigmenting agent, hydroquinone, may be used as a positive control on every plate. Primary screening is performed at a final concentration of 1 μM and potential candidates from the primary screening are reconfirmed in duplicate at final concentrations of 1 and 5 μM.
Melan-a cells are plated at 5×10^4 cells per well in 1 ml of culture media in 24-well plates the day before adding the library compounds. All compounds are added at the indicated final concentrations. Cells are harvested after 72 hours of incubation, and the melanin assay is performed.
For further test and mechanism of action studies, the compounds may be purchased from Sigma, MicroSource or other known suppliers. The compounds are dissolved in dimethylsulfoxide (DMSO) to a final concentration of 10 mM, and are tested for their effect on melanin synthesis at the indicated final concentrations.
For the primary and secondary screening, cells were harvested and dissolved in 200 μl of 2N NaOH in 20% DMSO at 70° C. A 180-μl aliquot of the resulting solution was measured for absorbance at 490 nm.
Cells are harvested in extraction buffer (1% Triton X-100, 50 mM Tris, 2 mM EDTA, 150 mM NaCl, pH 7.5) containing a complete protease inhibitor cocktail (Roche). The lysates were centrifuged at 14,000 rpm for 10 minutes at 4° C. BCA protein assay kit (Pierce) was used to measure the protein concentrations of the supernatants, and bovine serum albumin was used as a standard. The remaining pellets were incubated with 100 μl ethanol-ether (1:1) for 10 minutes at room temperature. After removing the ethanol-ether, the pellets were dissolved in 200 μl of 2N NaOH in 20% DMSO at 70° C. A 180-μl aliquot of the resulting solution was measured for absorbance at 490 nm. The melanin contents were normalized to the total amount of protein.
The compounds, their structures, inhibition data expressed as % of control remaining, are set forth in FIG. 1 and are shown in Table 1, below.

Structure (SMILES)	% of control melanin remaining after treatment @ 1 μM	% of control melanin remaining after treatment @ 5 μM
CC(C)=CCc1c2c(c3occ(-c4ccc(O)cc4)c(=O)c3c1O)C=CC(C)(C)O2 [ID 1, Osajin]	99 % of control	87 % of control
COc1ccc(-c2coc3c4c(c(CC=C(C)C)c(O)c3c2=O)OC(C)(C)C=C4)cc1 [ID 2, Osajin- 4′methyl ester]	99 % of control	70 % of control
CC(C)=CCc1c2c(c3occ(-c4ccc(O)c(O)c4)c(=O)c3c1O)C=CC(C)(C)O2 [ID 3, Pomiferin]	53 % of control	
COc1ccc(-c2coc3c4c(c(CC=C(C)C)c(O)c3c2=O)OC(C)(C)C=C4)cc1OC [ID 4, Pomiferin-3′,4′-dimethyl ether]	80 % of control	50 % of control
CC(C)=CCc1c2c(c(O)c3c(=O)c(-c4ccc(O)cc4)coc13)C=CC(C)(C)O2 [ID 5, Warangalone]	100 % of control	78 % of control
